In paper PMC11948903, “Exploring the synergy between fungal CE15 glucuronoyl esterases and xylanases for lignocellulose saccharification” (Biotechnology for Biofuels and Bioproducts, 2025):

Legend:
AeGE15 = system: T1, AeGE15; assay: HPLC of released cinnamyl alcohol (UV […] nm), Michaelis-Menten fit; format: biochemical, Artolenzites elegans; details: 50 °C, pH 5; substrate 0.2–5.0 mM; read-out: Kinetic parameters / KM
T1 construct: gene aege; mature protein with N-terminal CBM1 and CE15 domain; native signal peptide (21 of 471 residues) removed; alpha-factor secretion signal, C-terminal His6 tag kept; Pichia pastoris X33

TlGE15 = system: T2, TlGE15; assay: as above; format: biochemical, Trametes ljubarskyi; details: 40 °C, pH 5; substrate 0.2–5.0 mM; read-out: Kinetic parameters / KM
T2 construct: gene tlge; mature protein with N-terminal CBM1 and CE15 domain; native signal peptide (21 of 474 residues) removed; alpha-factor secretion signal, C-terminal His6 tag kept; Pichia pastoris X33

Question: With O=C(OC/C=C/c1ccccc1)[C@H]1OC(O)[C@H](O)[C@@H](O)[C@@H]1O (stereo partly drawn) [trans−3-phenyl-2-propen-1-yl D-glucopyranosyluronate] as the compound, how does the Km (AeGE15) read?
Answer: 3.6 ± 0.6 mM

Question: What about the Km (TlGE15) of the same compound?
Answer: 3.2 ± 0.5 mM
